Measurements from patent publication US6492338B1, “Therapeutic agents” (Takara Shuzo Co., Ltd., priority 1998, dated 2002).

What was measured:
[1] = biological target: T1, Aldose reductase (AR) (Homo sapiens, UniProt P15121); assay: AR (aldose reductase) inhibitory activity, NADPH/methylglyoxal, absorbance at 340 nm; assay type: biochemical
T1 construct: purchased Wako Pure Chemical Industries 012-13991
Protocol: 2,5-dihydroxytetrahydro-2-furancarboxylic acid was added to an AR reaction system to determine the AR inhibitory activity.
NADPH (Nacalai Tesque) as a hydrogen donor and methylglyoxal (Nacalai Tesque) as a substrate for the enzyme were used. A commercially available enzyme solution (Wako Pure Chemical Industries, code 012-13991) was diluted. for use as AR.
The AR activity was measured as follows.
40 μl of sterile pure water, 20 μl of 1 mM aqueous NADPH solution and 10 μl of enzyme dilution were added to 100 μl of 200 mM phosphate buffer (pH 6.2). 10 μl of sterile pure water was further added to the mixture. After 20 μl of 100 mM aqueous methylglyoxal solution was added thereto, the change in absorbance at 340 nm was monitored at room temperature for 3 minutes. The enzymatic activity was determined on the basis of the change in absorbance per minute. Next, aqueous solution of 2,5-dihydroxytetrahydro-2-furancarboxylic acid at a varying concentration was added to the reaction system as described above in place of 10 μl of sterile pure water. The enzymatic activity was then determined as described above.
The AR inhibitory activity of 2,5-dihydroxytetrahydro-2-furancarboxylic acid was determined based on the enzymatic activity inhibition rate calculated according to the following equation:
Enzymatic activity inhibition rate (%)={1-(enzymatic activity with the addition of aqueous 2,5-dihydroxytetrahydro-2-furancarboxylic acid solution)/(enzymatic activity with the addition of water)}×100.

[2] = tested on: alcohol dehydrogenase (ADH); assay: ADH inhibitory activity, NAD/ethanol, absorbance at 340 nm; assay type: biochemical; conditions: final concentration 10.8 μg/ml (IC50 for AR activity)
Protocol: Next, 2,5-dihydroxytetrahydro-2-furancarboxylic acid was added to an ADH reaction system to determine the ADH inhibitory activity.
A commercially available lyophilized product (Nacalai Tesque, code 012-83) was dissolved in water for use as ADH. NAD (Nacalai Tesque) as a hydrogen donor and ethanol (Nacalai Tesque) as a substrate for the enzyme were used.
The ADH activity was measured as follows.
50 μl of water, 20 μl of 3 mM aqueous NAD solution and 10 μl of enzyme solution were added to 100 μl of 200 mM phosphate buffer (pH 6.2). 10 μl of sterile pure water was further added to the mixture. After 10 μl of 60% ethanol was added thereto, the change in absorbance at 340 nm was monitored at room temperature for 3 minutes. The enzymatic activity was determined on the basis of the change in absorbance per minute.
Next, aqueous solution of 2,5-dihydroxytetrahydro-2-furancarboxylic acid at a final concentration of 10.8 μg/ml and sterile pure water were added to the reaction system as described above in place of 10 μl of sterile pure water. The enzymatic activity was then determined as described above. The ADH enzymatic activity inhibition rate was calculated according to the above-mentioned equation based on the enzymatic activity.

O=C(O)C1(O)CCC(O)O1 (stereo not drawn) [2,5-dihydroxytetrahydro-2-furancarboxylic acid]
IC50 ([1]; calculated from concentration and AR activity inhibition rate of Table 1, read-out: concentration in the enzymatic reaction mixture that results in the activity inhibition rate of 50% (IC50), AR (converted)): ~72.9 µM | Activity inhibition rate (AR) ([1]; concentration in enzymatic reaction system 0.5 μg/ml): 8.1% | Activity inhibition rate (AR) ([1]; concentration in enzymatic reaction system 5 μg/ml): 34.8% | Activity inhibition rate (AR) ([1]; concentration in enzymatic reaction system 50 μg/ml): 81.6% | Activity inhibition rate (AR) ([1]; concentration in enzymatic reaction system 500 μg/ml): 96.3% | ADH activity inhibition rate [2]: 7.1%
